# Measured values: patent US20260035367A1 (Celgene Corporation, priority 2021, published 2026)
# Counter-ions that a name gives are not always drawn. Like-named read-outs stand apart in the source and are kept apart here.
# Key:
# [1] = target: T1, Recombinant human PKC-theta (His-tagged 362-706) (Homo sapiens, UniProt Q04759); assay: PKC-theta inhibition assay (HTRF KinEASE kit); assay type: biochemical; conditions: STK substrate 525 nM
# T1 construct: Recombinant human PKC-theta (His-tagged 362-706); His
# T1 sequence (Q04759 362-706): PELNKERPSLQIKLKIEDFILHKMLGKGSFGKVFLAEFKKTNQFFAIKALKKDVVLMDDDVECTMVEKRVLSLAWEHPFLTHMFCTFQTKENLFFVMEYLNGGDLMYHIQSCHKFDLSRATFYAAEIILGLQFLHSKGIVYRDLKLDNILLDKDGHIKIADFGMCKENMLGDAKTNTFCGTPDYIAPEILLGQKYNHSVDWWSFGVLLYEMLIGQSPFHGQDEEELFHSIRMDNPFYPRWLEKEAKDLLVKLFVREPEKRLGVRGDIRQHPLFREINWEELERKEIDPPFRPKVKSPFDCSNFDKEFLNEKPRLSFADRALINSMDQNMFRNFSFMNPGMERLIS
# Method in brief: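 IC50 values were from 4-parameter logistic fits of percent inhibition, based on acceptor/donor HTRF ratios over 10 semi-log compound doses. Kinase reactions, started with substrate plus ATP, ran 30 min at 25 °C in buffer supplemented with 10 mM MgCl2, 1 mM DTT and 0.1% Tween 20; detection lasted 2 h.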
# [2] = target: T2, Recombinant human PKC-delta (His-tagged 345-676) (Homo sapiens, UniProt Q05655); assay: PKC-delta inhibition assay (HTRF KinEASE kit); assay type: biochemical; conditions: ratio, PKC-theta vs PKC-delta HTRF; for PKC-theta/PKC-delta selectivity (binned): binned A to G
# T2 construct: PKC-delta (His-tagged 345-676); His
# T2 sequence (Q05655 345-676): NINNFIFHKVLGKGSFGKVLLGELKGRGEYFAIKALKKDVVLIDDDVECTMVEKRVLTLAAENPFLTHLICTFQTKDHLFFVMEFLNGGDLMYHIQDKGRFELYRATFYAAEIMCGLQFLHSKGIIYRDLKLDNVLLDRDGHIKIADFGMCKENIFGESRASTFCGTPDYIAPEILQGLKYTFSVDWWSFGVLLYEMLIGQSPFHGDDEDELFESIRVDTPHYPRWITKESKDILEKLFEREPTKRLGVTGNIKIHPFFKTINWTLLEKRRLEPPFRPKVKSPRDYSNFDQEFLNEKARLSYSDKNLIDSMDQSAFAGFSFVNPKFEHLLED
# Description: PKC-theta and PKC-delta biochemical activities were measured using the PKC-theta HTRF KinEASEkit kit, according to manufacturer's instructions (Cisbio, catalogue number 61ST1PEJ). Briefly, the kinase buffer component of the kit was supplemented with 10 mM MgCl2, 1 mM DTT and 0.1% Tween 20. […] The streptavidin_XL665 and STK antibody-cryptate detection reagents were mixed according to the manufacturer's instructions. Test compounds were diluted in DMSO in a series of 10 semi-log step doses; 10 nL of each compound dose were dispensed in 384 well plates. […] The reaction was started by addition of the substrate and ATP and incubated at 25° C. for 30 minutes or 20 minutes for the PKC-theta and PKC-delta assays, respectively. The detection reagents were added, and the plate was incubated in the dark for 2 hours. […] The ratio of acceptor and donor emission signals was calculated for each well.
# [3] = tested on: IL-2 secretion by human effector memory T cells (TEM); assay: Effector memory T cells IL-2 release assay (CD3/CD28 stimulation, HTRF IL-2 detection); assay type: cell-based; conditions: 24 h; for IC50: Homo sapiens, T-cell
# Method in brief: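 IL-2 released into the supernatant was quantified by HTRF after 24 h at 37 °C in 5% CO2. The cells were stimulated primary human TEM from donor buffy coats, treated with a 10-point semi-log compound series (0.1% DMSO final, triplicates).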
# [4] = ATP 6.5 μM, binned A to H, read-out: PKC-theta HTRF pIC50 (binned) (converted)
# [5] = ATP 6.5 μM, read-out: PKC-theta HTRF pIC50 (converted)
# [6] = binned A to G, read-out: PKC-theta IL2 pIC50 (binned) (converted)
# [7] = read-out: PKC-theta IL2 pIC50 (converted)
Compound,"IC50 [1, 4] [nM]","IC50 [1, 5] [nM]",PKC-theta/PKC-delta selectivity [2],PKC-theta/PKC-delta selectivity (binned) [2],"IC50 [3, 6] [nM]","IC50 [3, 7] [nM]",PKC-theta IL2 pIC50 (binned) ([3]; binned A to G),PKC-theta IL2 pIC50 [3],"IC50 ([1]; PKC-theta HTRF pIC50 (binned), ATP 6.5 μM, binned A to H) [nM]","IC50 ([1]; PKC-theta HTRF pIC50, ATP 6.5 μM) [nM]"
CC[C@H]1CN(c2cc(C(F)(F)F)cc(-c3ccnc4c3C(C)(O)C(=O)N4)n2)CCN1 (stereo partly drawn) [Example 71],1 to 3.16,1.26,12,D (a ratio of between 10 and 20),31.6 to 100,31.6,–,–,–,–
CCC1(C)C(=O)Nc2nccc(-c3cc(C(F)(F)F)cc(N4CCNC[C@H]4C)n3)c21 (stereo partly drawn) [Example 144],1 to 3.16,1.58,23,C (a ratio of between 20 and 30),10 to 31.6,25.1,–,–,–,–
CC1(C)C(=O)Nc2nccc(-c3cccc(N4CCNCC4)c3)c21 [Example 23],100 to 316,100,2,F (a ratio of between 1 and 5),> 1000,1580,–,–,–,–
CCC1(O)C(=O)Nc2nccc(-c3cc(Cl)cc(N4CCN[C@@H](C)C4)n3)c21 (stereo partly drawn) [Example 113],1 to 3.16,3.16,22,C (a ratio of between 20 and 30),31.6 to 100,79.4,–,–,–,–
"C[C@@H]1CN(c2cc(C(F)(F)F)cc(-c3ccnc4c3[C@](C)(O)C(=O)N4)n2)CCN1 (single isomer, unassigned) [Example 108]",10 to 31.6,12.6,15,D (a ratio of between 10 and 20),100 to 316,126,–,–,–,–
C[C@H]1NCCN(c2cc(C(F)(F)F)cc(-c3ccnc4c3C(C)(C)C(=O)N4)n2)[C@H]1C [Example 127],1 to 3.16,1.26,15,D (a ratio of between 10 and 20),–,25.1,C (a measured pIC50 of between 7.5 and 8.0),–,–,–
"C[C@@]1(O)C(=O)Nc2nccc(-c3cc(C(F)(F)F)cc(N4C[C@H]5CC[C@@H](C4)N5)n3)c21 (single isomer, unassigned) [Example 136]",10 to 31.6,25.1,11,D (a ratio of between 10 and 20),316 to 1000,501,–,–,–,–
O=C1Nc2nccc(-c3cc(F)cc(N4CCNCC4)c3)c2C12CCCC2 [Example 36],10 to 31.6,20,1,F (a ratio of between 1 and 5),100 to 316,251,–,–,–,–
C[C@H]1CN(c2cc(C(F)(F)F)cc(-c3ccnc4c3C(C)(C)C(=O)N4)n2)CCN1 [Example 141],3.16 to 10,3.98,16,D (a ratio of between 10 and 20),31.6 to 100,50.1,–,–,–,–
"CC[C@@H]1CNCCN1c1cc(Cl)cc(-c2ccnc3c2[C@](C)(O)C(=O)N3)n1 (single isomer, unassigned) [Example 139]",0.316 to 1,0.794,1,F (a ratio of between 1 and 5),1 to 3.16,2,–,–,–,–
C[C@@H]1NCCN(c2cc(C(F)(F)F)cc(-c3ccnc4c3C(C)(C)C(=O)N4)n2)[C@@H]1C [Example 169],3.16 to 10,7.94,16,D (a ratio of between 10 and 20),31.6 to 100,100,–,–,–,–
CCC1(C)C(=O)Nc2nccc(-c3cc(Cl)cc(N4CCNC[C@H]4C)n3)c21 (stereo partly drawn) [Example 146],1 to 3.16,2.51,4,F (a ratio of between 1 and 5),10 to 31.6,25.1,–,–,–,–
"C[C@H]1CN(c2cc(-c3ccnc4c3[C@@](C)(O)C(=O)N4)cc(C(F)(F)F)c2)CCN1 (single isomer, unassigned) [Example 81]",10 to 31.6,25.1,9,E (a ratio of between 5 and 10),–,–,E (a measured pIC50 of between 6.5 and 7.0),6.7,–,–
CC1(C)C(=O)Nc2nccc(-c3cc(Cl)cc(N4CCNCC4)n3)c21 [Example 65],1 to 3.16,2,14,D (a ratio of between 10 and 20),100 to 316,200,–,–,–,–
"CC[C@@]1(O)C(=O)Nc2nccc(-c3cc(Cl)cc(N4CCN[C@@H](C)C4)n3)c21 (single isomer, unassigned) [Example 162]",100 to 316,316,33,B (a ratio of between 30 and 50),316 to 1000,794,–,–,–,–
C[C@H]1CNCCN1c1cccc(-c2ccnc3c2C(C)(C)C(=O)N3)c1 [Example 39],100 to 316,200,1,F (a ratio of between 1 and 5),> 1000,2510,–,–,–,–
C[C@H]1CN(c2cc(-c3ccnc4c3C(C)(O)C(=O)N4)cc(C(F)(F)F)c2)CCN1 (stereo partly drawn) [Example 78],10 to 31.6,15.8,11,D (a ratio of between 10 and 20),100 to 316,158,–,–,–,–
"CC[C@H]1CN(c2cc(Cl)cc(-c3ccnc4c3[C@@](C)(OC)C(=O)N4)n2)CCN1 (single isomer, unassigned) [Example 151]",10 to 31.6,12.6,15,D (a ratio of between 10 and 20),–,126,E (a measured pIC50 of between 6.5 and 7.0),–,–,–
C[C@@H]1CNCCN1c1cc(C(F)(F)F)cc(-c2ccnc3c2C(C)(C)C(=O)N3)n1 [Example 102],1 to 3.16,1.58,14,D (a ratio of between 10 and 20),10 to 31.6,20,–,–,–,–
C[C@@H]1CNCCN1c1cc(Cl)cc(-c2ccnc3c2C(C)(C)C(=O)N3)n1 [Example 140],1 to 3.16,1.58,6,E (a ratio of between 5 and 10),10 to 31.6,12.6,–,–,–,–
"C[C@H]1CNCCN1c1cccc(-c2ccnc3[nH]c(=O)[nH]c23)c1 [Example 8, 7-[3-[(2S)-2-methylpiperazin-1-yl]phenyl]-1,3-dihydroimidazo[4,5-b]pyridin-2-one dihydrochloride]",–,–,2,F (a ratio of between 1 and 5),> 1000,3980,–,–,316 to 1000,398
